Where a SMILES comes first, the peptide text is derived from it. The star is where a group is joined. Cbz = O=C(OCc1ccccc1)*; CH2F = FC*
Experiments:
[1] = tested on: retinal ganglion cells (RGCs); test: Brn3b immunohistochemistry (viable RGCs) after ON injury; assay type: in vivo, mouse; conditions: RIP3−/− mice; seven days after ON injury
Text: Two mouse models of RGC death were utilized: optic nerve (ON) injury and N-methyl-D-aspartate (NMDA) retinal excitotoxicity. ON injury leads to RGC death as a result of primary damage to the axons, with its ensuing disruption of retrograde axonal transport (Libby et al., (2005) PLOS GENET 1:17-26) and is used as an RGC death model. In the ON injury model, mice were anesthetized and subjected to severe crush injury at 1-2 mm distance from the eyeball for 15 seconds using cross-action forceps taking special care not to interfere with the blood supply (Levkovitch-Verbin, (2004) EYE 18:1066-1074). Injured mice were randomly divided into 4 groups for treatment: vehicle group (0.5% DMSO and 0.8% cyclodextrin in PBS, n=6), ZVAD group (300 n=6), Nec-1 group (4 mM, n=6), and ZVAD plus Nec-1 group (n=6). Soon after injury, each group received an intravitreal injection (2 μl) with the respective compounds. In the NMDA retinal excitotoxicity model, NMDA (2 μl of a 0.1M stock; Sigma-Aldrich) was injected intravitreously in combination with ZVAD, Nec-1, or ZVAD plus Nec-1 and mice were separated into the aforementioned 4 groups. […]

[2] = studies on which the dose was selected; cited from earlier work
[3] = tested on: retinal ganglion cells (RGCs); test: Transmission electron microscopy (TEM) quantification of apoptotic and necrotic RGC death after ON injury; assay type: in vivo, mouse
Method: In addition, the morphology of RGC death was assessed by transmission electron microscopy (TEM) as previously described (Trichonas et al., (2010) PROC NATL ACAD SCI USA)). Specifically, the eyes were enucleated, and the posterior segments were fixed in 2.5% glutaraldehyde and 2% paraformaldehyde in 0.1 M cacodylate buffer with 0.08 M CaCl2 at 4° C. The eyes were post-fixed for 1.5 hours in 2% aqueous OsO4, dehydrated in ethanol and water, and embedded in EPON. Ultrathin sections were cut from blocks and stained with saturated, aqueous uranyl acetate and Sato's lead stain. […] More than 50 RGCs per eye were photographed and subjected to quantification of cell death in a masked fashion. RGCs showing cellular shrinkage and nuclear condensation were defined as apoptotic cells, and RGCs associated with cellular and organelle swelling and discontinuities in nuclear and plasma membrane were defined as necrotic cells. Electron dense granular materials were labeled simply as end-stage unclassified cell death. Autophagosome was defined as a double- or multi-membraned structure containing cytoplasmic material and/or organelles, and autolysosome was defined as cytoplasmic vesicle containing electron dense degraded material, as previously described (Eskelinen, 2008).
RGC death was categorized into apoptosis, necrosis and unclassified end-stage of death, as previously described (Trichonas et al., (2010) PROC NATL ACAD SCI USA). […] Co-administration of ZVAD and Nec-1 led to a substantial decrease of both apoptotic and necrotic RGC death (% apoptotic cells: 4.2±5.1%, necrotic cells: 9.8±6.6%, unclassified: 1.8±1.8%, P<0.01; FIGS. 4C and 4D).
To identify the RGC death mode seen after ON injury transmission electron microscopy (TEM) studies was performed as previously described. RGCs that were unable to be classified were defined as end-stage cell death/unclassified. […] RGCs contained tubular sacs of rough endoplasmic reticulum (rER) surrounded by large numbers of ribosomes (Nissl bodies). Mitochondria were identified as round or oval double-membrane structures with characteristic cristae. In addition, the cytoplasm contained elements of Golgi apparatus (GA), free ribosomes and microtubules sectioned at various angles. A large round nucleus, surrounded by a double-layered nuclear membrane, contained homogeneously dispersed karyoplasm (chromatin material) and one or two electron dense nucleoli (FIG. 8A) (Saggu et al., (2010) BMC NEUROSCI 11:97)). After ON injury, RGC death through apoptosis was predominant.

[4] = tested on: retinal ganglion cells (RGCs); test: TUNEL staining after ON injury; assay type: in vivo, mouse
Text: Two mouse models of RGC death were utilized: optic nerve (ON) injury and N-methyl-D-aspartate (NMDA) retinal excitotoxicity. ON injury leads to RGC death as a result of primary damage to the axons, with its ensuing disruption of retrograde axonal transport (Libby et al., (2005) PLOS GENET 1:17-26) and is used as an RGC death model. In the ON injury model, mice were anesthetized and subjected to severe crush injury at 1-2 mm distance from the eyeball for 15 seconds using cross-action forceps taking special care not to interfere with the blood supply (Levkovitch-Verbin, (2004) EYE 18:1066-1074). […] Soon after injury, each group received an intravitreal injection (2 μl) with the respective compounds. In the NMDA retinal excitotoxicity model, NMDA (2 μl of a 0.1M stock; Sigma-Aldrich) was injected intravitreously in combination with ZVAD, Nec-1, or ZVAD plus Nec-1 and mice were separated into the aforementioned 4 groups. The dose of these compounds was selected based on previous studies (Karl et al., (2008) PROC NATL ACAD SCI USA 105:19508-19513; Knoferle et al., (2010) PROC NATL ACAD SCI USA 107:6064-6069; Nakazawa et al., (2006) J NEUROSCI 26:12633-12641; Rosenbaum et al., (2010) J NEUROSCI RES 88:1569-1576).
Intravitreal injections were performed as follows. Briefly, the tip of a 33 gauge needle (Hamilton, Reno, Nev.) was carefully inserted through the sclera into the intravitreal space to reduce intraocular pressure. Then, the needle was extracted, loaded with compounds and tangentially reinserted through the sclera into the intravitreal space, inducing a self-sealing wound tunnel. After injection, the absence of choroidal bleeding was confirmed. At specified times after injury, mice were sacrificed with an overdose of sodium pentobarbital, and eyes were enucleated.

[5] = one day after ON injury, mean±SD

COC(=O)CC(NC(=O)C(C)NC(=O)C(NC(=O)OCc1ccccc1)C(C)C)C(=O)CF (stereo not drawn) [Z-VAD, Benzyloxycarbonyl-Val-Ala-Asp(OMe)-fluoromethylketone] (Cbz-Val-Ala-Asp(OMe)-CH2F; configuration not given here)
number of Brn3b positive cells [1]: further enhanced | half-life inside the eye [2]: around 6 hours | mode of RGC death, apoptotic versus necrotic (TEM) ([3]; after ON injury): blocked apoptotic cell death and sensitized cells to necrotic cell death | apoptotic cells (RGC death, TEM) [3, 5]: 5.6±3.4% | necrotic cells (RGC death, TEM) [3, 5]: 30.7±4.9% | unclassified end-stage of death (TEM) [3, 5]: 3.4±2.3% | TUNEL positive cells ([4]; RIP3−/− mice, one day after ON injury): marked decrease in TUNEL positive cells | TUNEL positive cells (apoptotic RGCs) ([4]; wild-type mice, day one after ON injury, intravitreal Z-VAD (300 uM) and/or Nec-1 (400 uM)): failed to rescue RGCs

— US10617735B2, “Methods and compositions for preserving retinal ganglion cells” (Massachusetts Eye and Ear Infirmary, priority 2010, dated 2020)
